Values after ≈ are worked out from the molar mass of the structure shown. Where two headings read alike, the source gives them in different places.
Experiments:
Strep. pyog. = assay: in vitro MIC in BHI broth, Strep. pyog.; format: cell-based
Excerpt: (§1) Generally twelve 2 fold dilutions of the test compound are employed, with initial concentration of the test drug being in the range of 50 to 200 mcg./ml.
(§2) The susceptibility (MIC) of the test organism is accepted as the lowest concentration of compound capable of producing complete inhibition of growth as judged by the naked eye.

Past. mult. = assay: in vitro MIC in BHI broth, Past. mult.; format: cell-based
Excerpt: as §1, §2

Strep. faec. = assay: in vitro MIC in BHI broth, Strep. faec.; format: cell-based
Excerpt: as §1, §2

Neiss. sic. = assay: in vitro MIC in BHI broth, Neiss. sic.; format: cell-based
Excerpt: as §1, §2

Kleb. oxy. = assay: in vitro MIC in BHI broth, Kleb. oxy.; format: cell-based
Excerpt: as §1, §2

Staph. epi = assay: in vitro MIC in BHI broth, Staph. epi; format: cell-based
Excerpt: as §1, §2

E. Coli = assay: in vitro MIC in BHI broth, E. Coli; format: cell-based; conditions: Escherichia coli
H. influ. = assay: in vitro MIC in BHI broth, H. influ.; format: cell-based
Excerpt: as §1, §2

Staph. aur. = assay: in vitro MIC in BHI broth, Staph. aur.; format: cell-based
Excerpt: as §1, §2

Prov. strua. = assay: in vitro MIC in BHI broth, Prov. strua.; format: cell-based
Excerpt: as §1, §2

Serr. mar. = assay: in vitro MIC in BHI broth, Serr. mar.; format: cell-based
Excerpt: as §1, §2

Ent. cloac. = assay: in vitro MIC in BHI broth, Ent. cloac.; format: cell-based
Excerpt: as §1, §2

Ent. aerog. = assay: in vitro MIC in BHI broth, Ent. aerog.; format: cell-based
Kleb. pn. = assay: in vitro MIC in BHI broth, Kleb. pn.; format: cell-based
[1] = test system: erythromycin A and D susceptible organisms and Gram negative microorganisms resistant to erythromycin A and D; assay: spectrum of antibacterial activity; format: cell-based
Excerpt: as §1

[2] = serum levels after oral dosage (micro-biological bioassay) in mice; format: in vivo
Description: Additionally, compound (II) is tested in vivo by the well-known mouse protection test, or by a micro-biological (bioassay) determination of serum levels in a variety of mammals (e.g., mouse, rat, dog).

[3] = Strep. pyog. 203, BHI broth, read-out: MIC
[4] = Past. mult. 001, BHI broth, read-out: MIC
[5] = Kleb. oxy. 024, BHI broth, read-out: MIC
[6] = Staph. epi 111, BHI broth, read-out: MIC
[7] = Prov. strua. 013, BHI broth, read-out: MIC
[8] = Serr. mar. 017, BHI broth, read-out: MIC
[9] = Ent. cloac. 009, BHI broth, read-out: MIC
[10] = Ent. aerog. 040, BHI broth, read-out: MIC
[11] = Kleb. pn. 009, BHI broth, read-out: MIC
[12] = Neiss. sic. 000, BHI broth, read-out: MIC

Compound	MIC (Strep. pyog.; [3]) [µg/mL]	MIC (Past. mult.; [4]) [µg/mL]	MIC (Neiss. sic.) [µg/mL]	MIC (Kleb. oxy.; [5]) [µg/mL]	MIC (Staph. epi; [6]) [µg/mL]	MIC (E. Coli; E. Coli 125) [µg/mL]	MIC (E. Coli; E. Coli 129) [µg/mL]	MIC (E. Coli; E. Coli 266) [µg/mL]	MIC (E. Coli; E. Coli 470) [µg/mL]	MIC (H. influ.; H. influ. 012) [µg/mL]	MIC (H. influ.; H. influ. 036) [µg/mL]	MIC (H. influ.; H. influ. 038) [µg/mL]	MIC (H. influ.; H. influ. 042) [µg/mL]	MIC (H. influ.; H. influ. 051) [µg/mL]	MIC (Staph. aur.; Staph. aur. 005, read-out: MIC) [µg/mL]	MIC (Staph. aur.; Staph. aur. 052, read-out: MIC) [µg/mL]	MIC (Prov. strua.; [7]) [µg/mL]	MIC (Serr. mar.; [8]) [µg/mL]	MIC (Ent. cloac.; [9]) [µg/mL]	MIC (Kleb. pn.; Kleb. pn. 031, BHI broth)	further results
CC[C@H]1OC(=O)[C@H](C)[C@@H](O[C@H]2C[C@@](C)(OC)[C@@H](O)[C@H](C)O2)[C@H](C)[C@@H](O[C@@H]2O[C@H](C)C[C@H](N(C)C)[C@H]2O)[C@](C)(O)C[C@@H](C)C(=O)[C@H](C)[C@@H](O)[C@]1(C)O [(1), Erythromycin A]	0.025 (≈ 0.0341 µM)	0.78 (≈ 1.06 µM)	3.12 (≈ 4.25 µM)	> 50	0.05 (≈ 0.0681 µM)	> 50	> 50	> 50	1.56 (≈ 2.13 µM)	3.12 (≈ 4.25 µM)	3.12 (≈ 4.25 µM)	1.56 (≈ 2.13 µM)	3.12 (≈ 4.25 µM)	3.12 (≈ 4.25 µM)	0.05 (≈ 0.0681 µM)	0.1 (≈ 0.136 µM)	> 50	> 50	> 50	(a) (greater than 50)	MIC (Strep. faec.; Strep. faec. 006, BHI broth, read-out: MIC): 0.39 µg/mL (≈ 0.531 µM); MIC (H. influ.; H. influ. 073): 3.12 µg/mL (≈ 4.25 µM); MIC (H. influ.; H. influ. 078): 1.56 µg/mL (≈ 2.13 µM); MIC (H. influ.; H. influ. 081): 3.12 µg/mL (≈ 4.25 µM); MIC (Staph. aur.; Staph. aur. 400): 6.25 µg/mL (≈ 8.52 µM); MIC (Ent. aerog.; [10]): > 50 µg/mL; MIC (Kleb. pn.; [11]): > 50 µg/mL
CC[C@H]1OC(=O)[C@H](C)[C@@H](O[C@H]2C[C@@](C)(O)[C@@H](O)[C@H](C)O2)[C@H](C)[C@@H](O[C@@H]2O[C@H](C)C[C@H](N(C)C)[C@H]2O)[C@](C)(O)C[C@@H](C)C(=O)[C@H](C)[C@@H](O)[C@H]1C [(2), Erythromycin D]			6.25 (≈ 8.88 µM)			> 50	> 50	> 50	3.12 (≈ 4.43 µM)	25 (≈ 35.5 µM)	50 (≈ 71 µM)	25 (≈ 35.5 µM)	25 (≈ 35.5 µM)	12.5 (≈ 17.8 µM)						(a) (greater than 50)	MIC (Strep. pyog.): 0.025 µg/mL (≈ 0.0355 µM); MIC (Past. mult.): 6.25 µg/mL (≈ 8.88 µM); MIC (Strep. faec.): 0.39 µg/mL (≈ 0.554 µM); MIC (Kleb. oxy.): > 50 µg/mL; MIC (Staph. epi): 0.2 µg/mL (≈ 0.284 µM); MIC (H. influ.; H. influ. 073): 50 µg/mL (≈ 71 µM); MIC (H. influ.; H. influ. 078): 12.5 µg/mL (≈ 17.8 µM); MIC (H. influ.; H. influ. 081): 25 µg/mL (≈ 35.5 µM); MIC (Staph. aur.; Staph. aur. 005): 0.39 µg/mL (≈ 0.554 µM); MIC (Staph. aur.; Staph. aur. 052): 0.39 µg/mL (≈ 0.554 µM); MIC (Staph. aur.; Staph. aur. 400): 6.25 µg/mL (≈ 8.88 µM); MIC (Prov. strua.): > 50 µg/mL; MIC (Serr. mar.): > 50 µg/mL; MIC (Ent. cloac.): > 50 µg/mL; MIC (Ent. aerog.): > 50 µg/mL; MIC (Kleb. pn.): > 50 µg/mL
CC[C@H]1OC(=O)[C@H](C)[C@@H](O[C@H]2C[C@@](C)(OC)[C@@H](O)[C@H](C)O2)[C@H](C)[C@@H](O[C@@H]2O[C@H](C)C[C@H](N(C)C)[C@H]2O)[C@](C)(O)C[C@@H](C)CN(C)[C@H](C)[C@@H](O)[C@]1(C)O [(3), 9-deoxo-9a-methyl-9a-aza-9a-homoerythromycin A]	0.025 (≈ 0.0334 µM)	0.1 (≈ 0.134 µM)		25 (≈ 33.4 µM)	0.1 (≈ 0.134 µM)		6.25 (≈ 8.34 µM)	6.25 (≈ 8.34 µM)	0.78 (≈ 1.04 µM)					1.56 (≈ 2.08 µM)	0.2 (≈ 0.267 µM)	0.39 (≈ 0.521 µM)	50 (≈ 66.8 µM)	50 (≈ 66.8 µM)	25 (≈ 33.4 µM)		MIC (Strep. faec.): 1.56 µg/mL (≈ 2.08 µM); MIC (Neiss. sic.; [12]): 0.39 µg/mL (≈ 0.521 µM); MIC (H. influ.; H. influ. 036, read-out: MIC): 0.78 µg/mL (≈ 1.04 µM); MIC (H. influ.; H. influ. 038, read-out: MIC): 0.78 µg/mL (≈ 1.04 µM); MIC (H. influ.; H. influ. 042, read-out: MIC): 0.78 µg/mL (≈ 1.04 µM); MIC (H. influ.; H. influ. 073, read-out: MIC): 0.78 µg/mL (≈ 1.04 µM); MIC (H. influ.; H. influ. 078, read-out: MIC): 0.39 µg/mL (≈ 0.521 µM); MIC (H. influ.; H. influ. 081, read-out: MIC): 0.78 µg/mL (≈ 1.04 µM); MIC (Staph. aur.; Staph. aur. 400, read-out: MIC): 25 µg/mL (≈ 33.4 µM)
CC[C@H]1OC(=O)[C@H](C)[C@@H](O[C@H]2C[C@@](C)(O)[C@@H](O)[C@H](C)O2)[C@H](C)[C@@H](O[C@@H]2O[C@H](C)C[C@H](N(C)C)[C@H]2O)[C@](C)(O)C[C@@H](C)CN(C)[C@H](C)[C@@H](O)[C@H]1C [Compound (II), 9-deoxo-9a-methyl-9a-aza-9a-homoerythromycin D]	0.025 (≈ 0.0348 µM)	0.2 (≈ 0.278 µM)		50 (≈ 69.5 µM)	0.39 (≈ 0.542 µM)	25 (≈ 34.8 µM)	12.5 (≈ 17.4 µM)	12.5 (≈ 17.4 µM)	0.39 (≈ 0.542 µM)						0.39 (≈ 0.542 µM)	0.78 (≈ 1.08 µM)	> 50	> 50	> 50	50 micrograms/ml.	MIC (Neiss. sic.; [12]): 0.78 µg/mL (≈ 1.08 µM); spectrum of antibacterial activity [1]: relatively broad spectrum of antibacterial activity which includes erythromycin A and D susceptible organisms and, in addition, many Gram negative microorganisms resistant to erythromycin A and D; MIC (H. influ.; H. influ. 012, read-out: MIC): 3.12 µg/mL (≈ 4.34 µM); MIC (H. influ.; H. influ. 036, read-out: MIC): 3.12 µg/mL (≈ 4.34 µM); MIC (H. influ.; H. influ. 038, read-out: MIC): 1.56 µg/mL (≈ 2.17 µM); MIC (H. influ.; H. influ. 042, read-out: MIC): 3.12 µg/mL (≈ 4.34 µM); MIC (H. influ.; H. influ. 051, read-out: MIC): 3.12 µg/mL (≈ 4.34 µM); MIC (H. influ.; H. influ. 073, read-out: MIC): 0.39 µg/mL (≈ 0.542 µM); MIC (H. influ.; H. influ. 078, read-out: MIC): 0.78 µg/mL (≈ 1.08 µM); MIC (H. influ.; H. influ. 081, read-out: MIC): 3.12 µg/mL (≈ 4.34 µM); MIC (Staph. aur.; Staph. aur. 400, read-out: MIC): > 50 µg/mL; absorption after oral dosage [2]: exceptionally well absorbed; serum levels [2]: exceptionally high and long lasting serum levels; MIC (Ent. aerog.; [10]): 50 µg/mL (≈ 69.5 µM); MIC (Kleb. pn.; [11]): 50 µg/mL (≈ 69.5 µM)

Reference: patent US4465674A, “Azahomoerythromycin D derivative and intermediates therefor” (Pfizer Inc., priority 1983, dated 1984)
